The structures appear in SMILES notation.

Common to all, as to format: cell-based
In assay [1] the test system is IFN-g secretion from T cells in human whole blood. The note with it: read-out: WB (IFNg) IC50 (nM, Avg).
Another assay has as its target hKv1.3 (Homo sapiens, UniProt P22001). Nature of the assay: cell-based. The note with it: Kv1.3 (IWQ) IC50 (nM, Avg).
Assay [2] deals with IL-2 secretion from T cells in human whole blood. The note with it: read-out: WB (IL-2) IC50 (nM, Avg).

Chain of hKv1.3 (P22001 whole entry): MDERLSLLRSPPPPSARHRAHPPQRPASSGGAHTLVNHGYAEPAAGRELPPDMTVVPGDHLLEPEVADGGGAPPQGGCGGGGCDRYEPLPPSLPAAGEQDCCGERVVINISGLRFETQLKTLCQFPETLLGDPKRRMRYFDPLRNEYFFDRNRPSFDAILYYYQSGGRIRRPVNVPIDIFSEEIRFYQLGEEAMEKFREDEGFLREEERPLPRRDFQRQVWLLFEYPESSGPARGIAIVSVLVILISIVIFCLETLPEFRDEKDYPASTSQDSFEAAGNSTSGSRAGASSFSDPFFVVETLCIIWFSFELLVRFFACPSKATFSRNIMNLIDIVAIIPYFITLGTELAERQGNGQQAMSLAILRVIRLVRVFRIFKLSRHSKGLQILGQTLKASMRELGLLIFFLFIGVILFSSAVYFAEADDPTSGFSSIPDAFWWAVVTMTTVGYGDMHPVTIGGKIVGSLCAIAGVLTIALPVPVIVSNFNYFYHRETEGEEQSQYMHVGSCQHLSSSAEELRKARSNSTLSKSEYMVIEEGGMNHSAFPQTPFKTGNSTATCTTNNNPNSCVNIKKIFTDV

Turning to `CC[C@H](C)[C@@H]1NC(=O)[C@@H](NC(=O)[C@H](CO)NC(=O)[C@@H](N)CCCNC(=N)N)CSSC[C@@H](C(N)=O)NC(=O)[C@H]([C@@H](C)O)NC(=O)CNC(=O)[C@@H]2CSSC[C@@H]3NC(=O)[C@H](CCCCN)NC(=O)[C@H](Cc4ccccc4)NC(=O)[C@H](C)NC(=O)[C@H]([C@@H](C)O)NC(=O)[C@H](CSSC[C@H](NC(=O)[C@H](Cc4ccccc4)NC(=O)[C@H](CO)NC(=O)[C@H](CC(C)C)NC(=O)[C@H](CCCNC(=N)N)NC(=O)[C@H](Cc4ccc(O)cc4)NC(=O)[C@H](CCCCN)NC(=O)[C@H](CC4CCCCC4)NC(=O)[C@H](CO)NC(=O)[C@H](Cc4c[nH]cn4)NC(=O)[C@H](CCCCN)NC3=O)C(=O)N[C@@H](CCCNC(=N)N)C(=O)N[C@@H](CCCCN)C(=O)N[C@@H]([C@@H](C)O)C(=O)N2)NC(=O)[C@H](CCCNC(=N)N)NC(=O)[C@H](CO)NC(=O)[C@H](CCCCN)NC(=O)[C@@H]2CCCN2C(=O)[C@H]([C@@H](C)CC)NC(=O)[C@H]([C@@H](C)O)NC(=O)[C@H](CC(=O)O)NC1=O` [[Lys16, Cha21]ShK-amide], the IC50 – broadly, the concentration that inhibits the measured activity by half – in assay [1] came out at 1.32 nM; against hKv1.3 it was 0.499 nM; in assay [2], 1.74 nM.

Take `CC[C@H](C)[C@@H]1NC(=O)[C@@H](NC(=O)[C@H](CO)NC(=O)[C@@H](N)CCCNC(=N)N)CSSC[C@@H](C(N)=O)NC(=O)[C@H]([C@@H](C)O)NC(=O)CNC(=O)[C@@H]2CSSC[C@@H]3NC(=O)[C@H](CCCCN)NC(=O)[C@H](Cc4ccccc4)NC(=O)[C@H](C)NC(=O)[C@H]([C@@H](C)O)NC(=O)[C@H](CSSC[C@H](NC(=O)[C@H](Cc4ccccc4)NC(=O)[C@H](CO)NC(=O)[C@H](CC(C)C)NC(=O)[C@H](CCCNC(=N)N)NC(=O)[C@H](Cc4ccc(O)cc4)NC(=O)[C@H](CCCCN)NC(=O)[C@H](C4CCCCC4)NC(=O)[C@H](CO)NC(=O)[C@H](Cc4c[nH]cn4)NC(=O)[C@H](CCCCN)NC3=O)C(=O)N[C@@H](CCCNC(=N)N)C(=O)N[C@@H](CCCCN)C(=O)N[C@@H]([C@@H](C)O)C(=O)N2)NC(=O)[C@H](CCCNC(=N)N)NC(=O)[C@H](CO)NC(=O)[C@H](CCCCN)NC(=O)[C@@H]2CCCN2C(=O)[C@H]([C@@H](C)CC)NC(=O)[C@H]([C@@H](C)O)NC(=O)[C@H](CC(=O)O)NC1=O` [[Lys16, Chg21]ShK-amide]: the IC50 was 0.727 nM in assay [1], 0.205 nM against hKv1.3 and 0.875 nM in assay [2].

For `CC[C@H](C)[C@@H]1NC(=O)[C@@H](NC(=O)[C@H](CO)NC(=O)[C@@H](N)CCCNC(=N)N)CSSC[C@@H](C(N)=O)NC(=O)[C@H]([C@@H](C)O)NC(=O)CNC(=O)[C@@H]2CSSC[C@@H]3NC(=O)[C@H](CCCCN)NC(=O)[C@H](Cc4ccccc4)NC(=O)[C@H](C)NC(=O)[C@H]([C@@H](C)O)NC(=O)[C@H](CSSC[C@H](NC(=O)[C@H](Cc4ccccc4)NC(=O)[C@H](CO)NC(=O)[C@H](CC(C)C)NC(=O)[C@H](CCCNC(=N)N)NC(=O)[C@H](Cc4ccc(O)cc4)NC(=O)[C@H](CCCCN)NC(=O)[C@H](CCC(N)=O)NC(=O)[C@H](CO)NC(=O)[C@H](Cc4c[nH]cn4)NC(=O)[C@H](CCCCN)NC3=O)C(=O)N[C@@H](CCCNC(=N)N)C(=O)N[C@@H](CCCCN)C(=O)N[C@@H]([C@@H](C)O)C(=O)N2)NC(=O)[C@H](CCCNC(=N)N)NC(=O)[C@H](CO)NC(=O)[C@H](CCCCN)NC(=O)[C@@H]2CCCN2C(=O)[C@H]([C@@H](C)CC)NC(=O)[C@H]([C@@H](C)O)NC(=O)[C@H](CC(=O)O)NC1=O` [[Lys16, Gln21]ShK-amide], the concentration for half-maximal inhibition (IC50) turned out to be 0.812 nM in assay [1], 0.161 nM on hKv1.3 and 0.42 nM in assay [2].
